Results taken from PubChem BioAssay AID588372 (Southern Research Specialized Biocontainment Screening …, 2011).
Several values for one entry are separate records, joined by “and”; a condition that tells them apart may be missing. Identical values can stand only once. Results filed as inconclusive are left out. Each block holds one compound with its values, some of them ahead of it. Activity calls are given as the source filed them. No rule for the calls is given here.

What was measured:
[1] = system: West Nile virus infected cells, antiviral inhibition; test: inhibition of WNV in infected cells – cell-based, EC_2, dose response (AID 588372)
[2] = as above; settings: West Nile virus infected cells, antiviral inhibition

IC50 [1]: 2.1 µM
Structure (SMILES): O=C(CSc1nc2ccccc2c(=O)n1-c1cc(Cl)cc(Cl)c1)Nc1ccc2c(c1)CCC2

Structure (SMILES): O=C(CSc1nc2ccccc2c(=O)n1-c1ccc(F)c(Cl)c1)Nc1ccc2c(c1)OCO2
inhibition ([2]; at 100 µM (top of the series)): -0.94% (inactive)

Structure (SMILES): O=C(CSc1nc2ccccc2c(=O)n1-c1ccc(F)c(Cl)c1)NC1CCc2ccccc21 (configuration not stated)
inhibition ([2]; at 100 µM (top of the series)): 1.01% (inactive)

Structure (SMILES): O=C(CSc1nc2ccccc2c(=O)n1-c1cc(Cl)cc(Cl)c1)NC1CCCc2ccccc21 (configuration not stated)
inhibition ([2]; at 50 µM (top of the series)): 1.62% (inactive)

Structure (SMILES): O=C(CSc1nc2ccccc2c(=O)n1-c1cc(F)c(F)c(F)c1)Nc1nccs1
inhibition ([2]; at 100 µM (top of the series)): 6.14% (inactive)

Structure (SMILES): O=C(CSc1nc2ccccc2c(=O)n1-c1ccc(Cl)c(Cl)c1)N1CCCCCC1
inhibition ([2]; at 100 µM (top of the series)): 1.13% (inactive)

Structure (SMILES): O=C(CCCCSc1nc2ccccc2c(=O)n1-c1ccc(F)c(Cl)c1)Nc1ccc2c(c1)CCC2
inhibition ([2]; at 100 µM (top of the series)): 0.07% (inactive)

Structure (SMILES): O=C(CSc1nc2ccccc2c(=O)n1-c1ccc(Cl)c(Cl)c1)Nc1ccc2scnc2c1
inhibition ([2]; at 100 µM (top of the series)): 0.04% (inactive)

Structure (SMILES): O=C(CSc1nc2ccccc2c(=O)n1-c1cc(F)c(F)c(F)c1)NC1Cc2ccccc2C1
inhibition ([2]; at 50 µM (top of the series)): 0.07% (inactive)

Structure (SMILES): O=C(CSc1nc2ccccc2c(=O)n1-c1cc(F)c(F)c(F)c1)Nc1cccc2c1CCC2
inhibition ([2]; at 50 µM (top of the series)): 5.49% (inactive)

Structure (SMILES): O=C(CCSc1nc2ccccc2c(=O)n1-c1ccc(F)c(Cl)c1)Nc1ccc2c(c1)CCC2
inhibition ([2]; at 100 µM (top of the series)): -1.01% (inactive)

Structure (SMILES): O=C(CSc1nc2ccccc2c(=O)n1-c1cc(F)c(F)c(F)c1)Nc1ccc2c(c1)OCO2
inhibition ([2]; at 100 µM (top of the series)): 3.29% (inactive)

Structure (SMILES): O=C(CSc1nc2ccccc2c(=O)n1-c1cc(Cl)cc(Cl)c1)Nc1ccc2c(c1)OCO2
inhibition ([2]; at 50 µM (top of the series)): -2.43% (inactive)

Structure (SMILES): O=C(CCCCSc1nc2ccccc2c(=O)n1-c1ccc(F)c(F)c1)Nc1ccc2c(c1)CCC2
inhibition ([2]; at 100 µM (top of the series)): 0.53% (inactive)

Structure (SMILES): O=C(CSc1nc2ccccc2c(=O)n1-c1ccc(F)c(F)c1)Nc1nccs1
inhibition ([2]; at 50 µM (top of the series)): 0% (inactive)

Structure (SMILES): O=C(COc1nc2ccccc2c(=O)n1-c1ccccc1)Nc1ccc2c(c1)CCC2
inhibition ([2]; at 100 µM (top of the series)): 5.92% (inactive)

Structure (SMILES): O=C(CSc1nc2ccccc2c(=O)n1-c1ccc(Cl)c(Cl)c1)Nc1ncc([N+](=O)[O-])s1
inhibition ([2]; at 100 µM (top of the series)): 0.32% (inactive)

Structure (SMILES): O=C(CSc1nc2ccccc2c(=O)n1-c1ccc(F)c(Cl)c1)NC1Cc2ccccc2C1
inhibition ([2]; at 100 µM (top of the series)): -1.39% (inactive)

IC50 [1]: 5.27 µM
Structure (SMILES): O=C(CSc1nc2ccccc2c(=O)n1-c1cc(F)c(F)c(F)c1)Nc1ccc2c(c1)CCC2

Structure (SMILES): O=C(CSc1nc2ccccc2c(=O)n1-c1ccc(Cl)c(Cl)c1)NC1CCc2ccccc21 (configuration not stated)
inhibition ([2]; at 50 µM (top of the series)): 5.24% (inactive)

Structure (SMILES): O=C(CSc1nc2ccccc2c(=O)n1-c1ccc(Cl)c(Cl)c1)Nc1nc2cc(Cl)ccc2o1
inhibition ([2]; at 100 µM (top of the series)): 6.36% (inactive)

Structure (SMILES): O=C(CSc1nc2ccccc2c(=O)n1-c1ccc(Cl)c(Cl)c1)NC1Cc2ccccc2C1
inhibition ([2]; at 50 µM (top of the series)): -0.66% (inactive)

Structure (SMILES): Cn1c(NC(=O)CSc2nc3ccccc3c(=O)n2-c2ccccc2)nc2ccccc21
inhibition ([2]; at 25 µM (top of the series)): -2.29% (inactive)

Structure (SMILES): O=C(CCSc1nc2ccccc2c(=O)n1-c1ccc(F)c(F)c1)Nc1ccc2c(c1)CCC2
inhibition ([2]; at 100 µM (top of the series)): -1.31% (inactive)

Structure (SMILES): O=C(CCCCSc1nc2ccccc2c(=O)n1-c1cc(Cl)cc(Cl)c1)Nc1ccc2c(c1)CCC2
inhibition ([2]; at 100 µM (top of the series)): 0.66% (inactive)

Structure (SMILES): O=C(CSc1nc2ccccc2c(=O)n1-c1ccc(Cl)c(Cl)c1)Nc1nc(-c2ccccc2)cs1
inhibition ([2]; at 100 µM (top of the series)): 0.46% (inactive)

Structure (SMILES): O=C(CSc1nc2ccccc2c(=O)n1-c1ccc(F)c(Cl)c1)Nc1cccc2c1CCC2
inhibition ([2]; at 100 µM (top of the series)): -0.11% (inactive)

IC50 [1]: 5.72 µM
Structure (SMILES): O=C(CSc1nc2ccccc2c(=O)n1-c1ccc(F)c(F)c1)Nc1ccc2c(c1)CCC2

Structure (SMILES): O=C(CSc1nc2ccccc2c(=O)n1-c1ccc(F)c(Cl)c1)Nc1cccc2ccccc12
inhibition ([2]; at 100 µM (top of the series)): -0.86% (inactive)

Structure (SMILES): O=C(CCSc1nc2ccccc2c(=O)n1-c1cc(Cl)cc(Cl)c1)Nc1ccc2c(c1)CCC2
inhibition ([2]; at 100 µM (top of the series)): 1.02% (inactive)

Structure (SMILES): O=C(CSc1nc2ccccc2c(=O)n1-c1ccc(F)c(F)c1)NC1CCCc2ccccc21 (configuration not stated)
inhibition ([2]; at 100 µM (top of the series)): -0.29% (inactive)

Structure (SMILES): O=C(CSc1nc2ccccc2c(=O)n1-c1ccc(F)c(Cl)c1)NC1CCCc2ccccc21 (configuration not stated)
inhibition ([2]; at 100 µM (top of the series)): -0.04% (inactive)

Structure (SMILES): O=C(CSc1nc2ccccc2c(=O)n1-c1ccc(F)c(F)c1)Nc1cccc2ccccc12
inhibition ([2]; at 100 µM (top of the series)): -1.02% (inactive)

Structure (SMILES): O=C(CCCCSc1nc2ccccc2c(=O)n1-c1cc(F)c(F)c(F)c1)Nc1ccc2c(c1)CCC2
inhibition ([2]; at 100 µM (top of the series)): 11.5% (inactive)

Structure (SMILES): O=C(CSc1nc2ccccc2c(=O)n1-c1cc(F)c(F)c(F)c1)Nc1cccc2ccccc12
inhibition ([2]; at 100 µM (top of the series)): -1.52% (inactive)

Structure (SMILES): O=C(CSc1nc2ccccc2c(=O)n1-c1cc(Cl)cc(Cl)c1)Nc1cccc2c1CCC2
inhibition ([2]; at 50 µM (top of the series)): 1.26% (inactive)

Structure (SMILES): Cc1nc2cc(NC(=O)CSc3nc4ccccc4c(=O)n3-c3ccc(Cl)c(Cl)c3)ccc2s1
inhibition ([2]; at 50 µM (top of the series)): 0.29% (inactive)

IC50 [1]: 9.05 µM
Structure (SMILES): O=C(CSc1nc2ccccc2c(=O)n1-c1ccc(F)c(Cl)c1)Nc1ccc2c(c1)CCC2

Structure (SMILES): O=C(CSc1nc2ccccc2c(=O)n1-c1ccc(Cl)c(Cl)c1)Nc1nc2ccc([N+](=O)[O-])cc2s1
inhibition ([2]; at 50 µM (top of the series)): -1.43% (inactive)

Structure (SMILES): O=C(CSc1nc2ccccc2c(=O)n1-c1ccc(F)c(F)c1)NC1Cc2ccccc2C1
inhibition ([2]; at 100 µM (top of the series)): -0.73% (inactive)

IC50 [1]: 6.51 µM and 33.3 µM
Structure (SMILES): O=C(CSc1nc2ccccc2c(=O)n1-c1ccccc1)Nc1ccc2c(c1)CCC2

Structure (SMILES): O=C(CCCCSc1nc2ccccc2c(=O)n1-c1ccc(Cl)c(Cl)c1)Nc1ccc2c(c1)CCC2
inhibition ([2]; at 100 µM (top of the series)): 3.07% (inactive)

Structure (SMILES): O=C(CSc1nc2ccccc2c(=O)n1-c1ccc(F)c(Cl)c1)Nc1nccs1
inhibition ([2]; at 100 µM (top of the series)): 7.09% (inactive)

Structure (SMILES): O=C(CCCSc1nc2ccccc2c(=O)n1-c1ccc(Cl)c(Cl)c1)Nc1ccc2c(c1)CCC2
inhibition ([2]; at 100 µM (top of the series)): -0.7% (inactive)

Structure (SMILES): O=C(CSc1nc2ccccc2c(=O)n1-c1cc(F)c(F)c(F)c1)NC1CCCc2ccccc21 (configuration not stated)
inhibition ([2]; at 50 µM (top of the series)): -0.6% (inactive)

Structure (SMILES): Cc1cnc(NC(=O)CSc2nc3ccccc3c(=O)n2-c2ccc(Cl)c(Cl)c2)s1
inhibition ([2]; at 100 µM (top of the series)): -0.85% (inactive)

Structure (SMILES): Cn1c(NC(=O)CSc2nc3ccccc3c(=O)n2-c2ccc(Cl)c(Cl)c2)nc2ccccc21
inhibition ([2]; at 50 µM (top of the series)): -1.28% (inactive)

Structure (SMILES): O=C(CSc1nc2ccccc2c(=O)n1-c1ccc(F)c(F)c1)Nc1cccc2c1CCC2
inhibition ([2]; at 100 µM (top of the series)): 0% (inactive)

Structure (SMILES): O=C(CSc1nc2ccccc2c(=O)n1-c1ccc(Cl)c(Cl)c1)Nc1cccc(-c2ccccc2)c1
inhibition ([2]; at 100 µM (top of the series)): -1.24% (inactive)

Structure (SMILES): O=C(CSc1nc2ccccc2c(=O)n1-c1ccc(F)c(F)c1)Nc1ccc2c(c1)OCO2
inhibition ([2]; at 100 µM (top of the series)): -1.66% (inactive)

Structure (SMILES): O=C(CSc1nc2ccccc2c(=O)n1-c1ccc(Cl)c(Cl)c1)NC1CCCc2ccccc21 (configuration not stated)
inhibition ([2]; at 50 µM (top of the series)): 1.77% (inactive)

Structure (SMILES): Cc1csc(NC(=O)CSc2nc3ccccc3c(=O)n2-c2ccc(Cl)c(Cl)c2)n1
inhibition ([2]; at 100 µM (top of the series)): -0.04% (inactive)
